PubChem BioAssay (NCI)
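Dose response: 5 concentrations. Exposure: 48 h. Format: 96-well plates. Endpoint: linear interpolation; highest concentration if not reached. TGI: total growth inhibition.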

Experiments:
Assay in all cases: NCI anticancer screen, dose series, 48 h
[1] = test system: LOX IMVI melanoma
[2] = test system: A549 NSCLC
[3] = test system: NCI-H226 lung
[4] = test system: SN12C renal
[5] = test system: HCT-15 colon
[6] = test system: UO-31 renal
[7] = test system: PC-3 prostate
[8] = test system: SW-620 colon
[9] = test system: RPMI-8226 leukemia
[10] = test system: EKVX NSCLC
[11] = test system: HL-60(TB) leukemia
[12] = test system: SF-539 CNS
[13] = test system: SR leukemia
[14] = test system: MOLT-4 leukemia
[15] = test system: T-47D breast
[16] = test system: KM12 colon
[17] = test system: COLO 205 colon
[18] = test system: OVCAR-4 ovarian
[19] = test system: MDA-MB-231 breast
[20] = test system: MDA-N
[21] = test system: MCF7 breast
[22] = test system: CCRF-CEM leukemia
[23] = test system: U251 CNS
[24] = test system: HOP-92 NSCLC
[25] = test system: CAKI-1 renal
[26] = test system: SK-MEL-28 melanoma
[27] = test system: HS 578T breast
[28] = test system: SK-OV-3 ovarian
[29] = test system: A498 renal
[30] = test system: SNB-19 CNS
[31] = test system: RXF 393 renal
[32] = test system: HT29 colon
[33] = test system: SNB-75 CNS
[34] = test system: MDA-MB-435
[35] = test system: OVCAR-5 ovarian
[36] = test system: SF-268 CNS
[37] = test system: SF-295 CNS
[38] = test system: OVCAR-8 ovarian
[39] = test system: M14 melanoma
[40] = test system: SK-MEL-5 melanoma
[41] = test system: NCI/ADR-RES ovarian
[42] = test system: MALME-3M melanoma
[43] = test system: UACC-62 melanoma
[44] = test system: 786-0 renal
[45] = test system: K-562 leukemia
[46] = test system: NCI-H460 lung
[47] = test system: TK-10 renal
[48] = test system: ACHN renal
[49] = test system: IGROV1 ovarian
[50] = test system: HOP-62 NSCLC
[51] = test system: HCC-2998 colon
[52] = test system: SK-MEL-2 melanoma
[53] = test system: NCI-H522 lung
[54] = test system: HCT-116 colon
[55] = test system: OVCAR-3 ovarian
[56] = test system: UACC-257 melanoma
[57] = test system: BT-549 breast
[58] = test system: NCI-H23 lung
[59] = test system: DU-145 prostate

CC(=O)O[C@H]1C(=O)[C@@]2(C)[C@H]([C@H](OC(=O)c3ccccc3)[C@]3(O)C[C@H](OC(=O)[C@H](O)[C@@H](NC(=O)c4cccc(N=[N+]=[N-])c4)c4ccccc4)C(C)=C1C3(C)C)[C@]1(OC(C)=O)CO[C@@H]1C[C@@H]2O
TGI [1]: > 25 µM
TGI [2]: > 25 µM
TGI [3]: > 25 µM
TGI [4]: > 25 µM
TGI [5]: > 25 µM
TGI [6]: > 25 µM
TGI [7]: > 25 µM
TGI [8]: > 25 µM
TGI [9]: 0.134 µM
TGI [10]: > 25 µM
TGI [11]: < 0.0025 µM
TGI [12]: 0.0133 µM
TGI [13]: 0.162 µM
TGI [14]: 1.12 µM
TGI [15]: > 25 µM
TGI [16]: > 25 µM
TGI [17]: 0.0405 µM
TGI [18]: > 25 µM
TGI [19]: 0.422 µM
TGI [20]: 0.00735 µM
TGI [21]: > 25 µM
TGI [22]: 0.0681 µM
TGI [23]: 0.635 µM
TGI [24]: > 23.9 µM
TGI [25]: > 25 µM
TGI [26]: > 22.8 µM
TGI [27]: 0.0712 µM
TGI [28]: > 25 µM
TGI [29]: 7.62 µM
TGI [30]: > 25 µM
TGI [31]: 0.897 µM
TGI [32]: > 6.26 µM
TGI [33]: 0.785 µM
TGI [34]: 0.00412 µM
TGI [35]: 1.06 µM
TGI [36]: > 25 µM
TGI [37]: 0.19 µM
TGI [38]: > 25 µM
TGI [39]: 3.23 µM
TGI [40]: 3.11 µM
TGI [41]: > 25 µM
TGI [42]: > 25 µM
TGI [43]: > 15.9 µM
TGI [44]: > 25 µM
TGI [45]: 0.0242 µM
TGI [46]: > 25 µM
TGI [47]: > 20.1 µM
TGI [48]: > 25 µM
TGI [49]: > 25 µM

O=C(/C=C/c1ccccc1)NNC(=O)c1c(Cl)c(Cl)c(Cl)c(Cl)c1-c1nc2ccccc2[nH]1
TGI [1]: 59.6 µM
TGI [2]: 67.7 µM
TGI [3]: > 100 µM
TGI [4]: 63.4 µM
TGI [5]: 90.7 µM
TGI [50]: 56.5 µM
TGI [51]: 65.9 µM
TGI [6]: 55.6 µM
TGI [7]: > 100 µM
TGI [8]: > 100 µM
TGI [9]: 83.2 µM
TGI [10]: > 100 µM
TGI [11]: 50.7 µM
TGI [12]: > 100 µM
TGI [13]: > 100 µM
TGI [52]: 80.8 µM
TGI [14]: > 100 µM
TGI [15]: 60.6 µM
TGI [53]: 63.4 µM
TGI [17]: 33.2 µM
TGI [18]: > 100 µM
TGI [54]: 53.6 µM
TGI [20]: 45.4 µM
TGI [21]: > 100 µM
TGI [22]: 75.8 µM
TGI [55]: > 100 µM
TGI [24]: 45.7 µM
TGI [25]: > 100 µM
TGI [26]: > 100 µM
TGI [56]: 99.1 µM
TGI [57]: 76.1 µM
TGI [28]: 54.9 µM
TGI [29]: 90.9 µM
TGI [31]: 47.3 µM
TGI [32]: > 100 µM
TGI [33]: 59.2 µM
TGI [34]: > 100 µM
TGI [35]: > 100 µM
TGI [36]: > 100 µM
TGI [37]: > 100 µM
TGI [38]: > 100 µM
TGI [39]: 83.5 µM
TGI [40]: 62.4 µM
TGI [41]: 64.9 µM
TGI [58]: 60 µM
TGI [42]: 59.1 µM
TGI [59]: > 100 µM
TGI [43]: > 100 µM
TGI [44]: 73.8 µM
TGI [45]: > 100 µM
TGI [46]: 61 µM
TGI [48]: > 100 µM
TGI [49]: 45.6 µM

CC(=O)O[C@H]1[C@@H]2OC(=O)[C@@](O)(CC3CCCO3)[C@@H]2CC(=O)[C@](C)(O)CC/C=C(\C)CCC[C@@H]1C (some centres undefined)
TGI [1]: 46.1 µM
TGI [2]: > 100 µM
TGI [3]: 32.5 µM
TGI [4]: > 100 µM
TGI [5]: > 100 µM
TGI [51]: > 100 µM
TGI [6]: > 100 µM
TGI [7]: > 100 µM
TGI [8]: 49.2 µM
TGI [9]: > 100 µM
TGI [10]: > 100 µM
TGI [11]: 57.8 µM
TGI [12]: 36.7 µM
TGI [52]: > 100 µM
TGI [15]: > 100 µM
TGI [53]: 72.4 µM
TGI [16]: > 100 µM
TGI [17]: 34.5 µM
TGI [18]: > 100 µM
TGI [19]: 63 µM
TGI [20]: 49.4 µM
TGI [21]: > 100 µM
TGI [22]: 68.4 µM
TGI [23]: > 100 µM
TGI [55]: > 100 µM
TGI [24]: 87.7 µM
TGI [25]: 44.5 µM
TGI [26]: 44.5 µM
TGI [27]: > 100 µM
TGI [56]: > 100 µM
TGI [57]: 70.4 µM
TGI [29]: > 100 µM
TGI [30]: > 100 µM
TGI [31]: 35.9 µM
TGI [33]: > 100 µM
TGI [34]: > 100 µM
TGI [35]: > 100 µM
TGI [36]: > 100 µM
TGI [37]: > 100 µM
TGI [38]: > 100 µM
TGI [39]: > 100 µM
TGI [40]: > 100 µM
TGI [41]: > 100 µM
TGI [42]: > 100 µM
TGI [59]: > 100 µM
TGI [43]: > 100 µM
TGI [44]: > 100 µM
TGI [45]: 90.9 µM
TGI [46]: > 100 µM
TGI [47]: > 100 µM
TGI [48]: > 100 µM
TGI [49]: > 100 µM

Cc1c(N2C(=O)CS(=O)(=O)C2c2cccc(Oc3ccccc3)c2)c(=O)n(-c2ccccc2)n1C (centres undefined)
TGI [1]: > 100 µM
TGI [2]: > 100 µM
TGI [3]: > 100 µM
TGI [4]: > 100 µM
TGI [5]: > 100 µM
TGI [50]: > 100 µM
TGI [6]: > 100 µM
TGI [7]: > 100 µM
TGI [8]: > 100 µM
TGI [9]: 74.4 µM
TGI [10]: > 100 µM
TGI [11]: 53.4 µM
TGI [12]: > 100 µM
TGI [52]: > 100 µM
TGI [14]: > 100 µM
TGI [15]: > 100 µM
TGI [53]: > 100 µM
TGI [16]: > 100 µM
TGI [17]: 95.8 µM
TGI [18]: 66.3 µM
TGI [19]: > 100 µM
TGI [54]: > 100 µM
TGI [20]: 62.6 µM
TGI [21]: > 100 µM
TGI [22]: > 100 µM
TGI [23]: > 100 µM
TGI [55]: > 100 µM
TGI [24]: > 100 µM
TGI [25]: > 100 µM
TGI [26]: > 100 µM
TGI [27]: > 100 µM
TGI [56]: > 100 µM
TGI [57]: > 100 µM
TGI [28]: > 100 µM
TGI [29]: 55.9 µM
TGI [30]: > 100 µM
TGI [31]: 79.3 µM
TGI [32]: > 100 µM
TGI [34]: > 100 µM
TGI [35]: > 100 µM
TGI [36]: > 100 µM
TGI [37]: > 100 µM
TGI [38]: > 100 µM
TGI [39]: > 100 µM
TGI [40]: > 100 µM
TGI [41]: > 100 µM
TGI [58]: > 100 µM
TGI [42]: 60 µM
TGI [59]: > 100 µM
TGI [43]: > 100 µM
TGI [45]: > 100 µM
TGI [46]: > 100 µM
TGI [47]: 47.7 µM
TGI [48]: > 100 µM
TGI [49]: > 100 µM
